Values of other authors in US20240335441A1, “METHOD OF TREATING POSTTRAUMATIC STRESS DISORDER” (Jazz Pharmaceuticals Ireland Limited, priority 2021, published 2024).

What was measured:
healthy volunteers = settings: placebo-controlled
[1] = test system: men with cannabis use disorder (CUD); settings: compared to placebo

O=C(Nc1cccnn1)N1CCC(=Cc2cccc(Oc3ccc(C(F)(F)F)cn3)c2)CC1 [Compound A, N-Pyridazin-3-yl-4-{3-[5-(trifluoromethyl)-2-pyridyloxy]benzylidene}piperidine-1-carboxamide]
negative affect in response to an aversive stimulus (healthy volunteers): blunted
recall of fear extinction memory (healthy volunteers): enhanced
self-reported overall sleep [1]: improved
slow wave sleep as measured by polysomnography [1]: significantly increased
